What was measured:
[1] = system: LPA 18:2 in rat plasma; assay: Rat whole blood (plasma) LPA assay; type: biochemical; conditions: 2 h at 37 C, LPA 18:2 by LC-MS/MS
Experimental: Whole blood is collected from rats or mouse by exsanguinations on sodium heparin tube, then after centrifugation at 3000 rpm for 15 min at 4° C., plasma is stored at −80° C. Compounds are diluted in DMSO in concentration dependent manner then 0.5 μL are dispensed into 96-well plate placed in ice. Plasma is defrosted on ice then 49.5 μL of plasma are added into the well containing 0.5 μL of compound (1% DMSO final). Plates are covered with a lid in polypropylene and incubated at +37° C., 5% CO2, for 2 h under gentle shaking (except controls which are stored at −20° C.).
At the end of the incubation, controls are defrosted in ice and transferred in the incubated plates for LC-MS/MS analysis with a non GLP-validated method. For the analysis, plasma proteins from a 10 μL incubated plates are precipitated with an excess of methanol containing the internal standard, LPA 17:0. After centrifugation, the corresponding supernatant is injected on a C18 column. Analytes are eluted out of the column under isocratic conditions. An API5500 QTRAP mass spectrometer (ABSciex™) is used for the detection of LPA 18:2. No calibration curve is prepared for LPA 18:2, however relative quantities are evaluated based on the peak area.

[2] = molecular target: T1, hENPP2 (UniProtKB/SwissProt Q13822) (Homo sapiens (Human), UniProt Q13822); assay: hENPP2 biochemical assay, LPC as substrate; conditions: LPC (palmitoyl 16:0) as substrate
Procedure, shortened: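 Human ENPP2 in 50 mM Tris-HCl pH 8.5, 500 mM NaCl, 5 mM KCl, 10 mM CaCl2, 0.1% fatty-acid-free BSA, reacted 30 min at 37 °C with LPC 16:0 (150 µM solution added 1:1). Released choline measured via choline oxidase/peroxidase/TOOS/4-aminoantipyrine quinoneimine dye at 555 nm; IC50 reported.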

[3] = molecular target: T1, hENPP2; assay: fluorescent hENPP2 biochemical assay, FS-3 as substrate; conditions: read-out: FS3-IC50
Procedure, shortened: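 hENPP2 in 50 mM Tris-HCl pH 8.0, 250 mM NaCl, 5 mM KCl, 1 mM MgCl2, 1 mM CaCl2, 0.1% fatty-acid-free BSA, preincubated with compound 30 min at room temperature. The 0.75 μM FS-3 solution was added and the mixture incubated 30 min at 30° C. Fluorescence (ex 485/em 520 nm) gives IC50.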

Row | Structure (SMILES) | IC50 [1] [nM] | IC50 [2] [nM] | IC50 [3] [nM] | LPC-IC50 [2]
1 | CCc1nc2c(C)cc(N3CCN(CC(=O)N4CC(C)(O)C4)CC3)cn2c1N(C)c1nc(-c2ccc(F)cc2)c(C#N)s1 [Compound 3, 2-((2-ethyl-6-(4-(2-(3-hydroxy-3-methylazetidin-1-yl)-2-oxoethyl)piperazin-1-yl)-8-methylimidazo[1,2-a]pyridin-3-yl)(methyl)amino)-4-(4-fluorophenyl)thiazole-5-carbonitrile] | 100 to 500 |  |  | 
2 | CCc1nc2c(C)cc(N3CCN(CC(=O)N4CC(O)C4)C(C)(C)C3)cn2c1N(C)c1nc(-c2ccc(F)cc2)c(C#N)s1 [Compound 6, 2-((2-ethyl-6-(4-(2-(3-hydroxyazetidin-1-yl)-2-oxoethyl)-3,3-dimethylpiperazin-1-yl)-8-methylimidazo[1,2-a]pyridin-3-yl)(methyl)amino)-4-(4-fluorophenyl)thiazole-5-carbonitrile] | 100 to 500 |  |  | 
3 | CCc1nc2c(C)cc(C3CCN(CC(=O)N4CC(O)C4)CC3)cn2c1N(C)c1nc(-c2ccc(F)cc2)c(C#N)s1 [Compound 10, 2-((2-ethyl-6-(1-(2-(3-hydroxyazetidin-1-yl)-2-oxoethyl)piperidin-4-yl)-8-methylimidazo[1,2-a]pyridin-3-yl)(methyl)amino)-4-(4-fluorophenyl)thiazole-5-carbonitrile] | 100 to 500 |  |  | 
4 | CCc1nc2c(F)cc(N3CCN(CC(=O)N4CC(O)C4)CC3)cn2c1N(C)c1nc(-c2ccc(F)cc2)cs1 [Compound 14, 2-(4-(2-ethyl-8-fluoro-3-((4-(4-fluorophenyl)thiazol-2-yl)(methyl)amino)imidazo[1,2-a]pyridin-6-yl)piperazin-1-yl)-1-(3-hydroxyazetidin-1-yl)ethanone] | 0.01 to 100 |  |  | 
5 | CCc1nc2c(F)cc(N3CCN(CC(=O)N4CC[C@H](O)C4)CC3)cn2c1N(C)c1nc(-c2ccc(F)cc2)cs1 [Compound 15, (S)-2-(4-(2-ethyl-8-fluoro-3-((4-(4-fluorophenyl)thiazol-2-yl)(methyl)amino)imidazo[1,2-a]pyridin-6-yl)piperazin-1-yl)-1-(3-hydroxypyrrolidin-1-yl)ethanone] | 500 to 1000 |  |  | 
6 | CCc1nc2ccc(N3CCC(O)CC3)cn2c1N(C)c1nc(-c2ccc(F)cc2)cs1 [Compound 211, 1-(2-ethyl-3-((4-(4-fluorophenyl)thiazol-2-yl)(methyl)amino)imidazo[1,2-a]pyridin-6-yl)piperidin-4-ol] |  | > 1000 | 0.01 to 100 | 
7 | CCc1nc2ccc(C3=CCN(C(=O)OC(C)(C)C)CC3)cn2c1N(C)c1nc(-c2ccc(F)cc2)cs1 [Compound 214, tert-butyl 4-(2-ethyl-3-((4-(4-fluorophenyl)thiazol-2-yl)(methyl)amino)imidazo[1,2-a]pyridin-6-yl)-5,6-dihydropyridine-1(2H)-carboxylate] |  | > 1000 | 0.01 to 100 | 
8 | CCC(=O)N1CCC(c2ccc3nc(CC)c(N(C)c4nc(-c5ccc(F)cc5)cs4)n3c2)CC1 [Compound 215, 1-(4-(2-ethyl-3-((4-(4-fluorophenyl)thiazol-2-yl)(methyl)amino)imidazo[1,2-a]pyridin-6-yl)piperidin-1-yl)propan-1-one] |  | 100 to 500 | 0.01 to 100 | 
9 | CCc1nc2ccc(C3CCNCC3)cn2c1N(C)c1nc(-c2ccc(F)cc2)cs1 [Compound 216, N-(2-ethyl-6-(piperidin-4-yl)imidazo[1,2-a]pyridin-3-yl)-4-(4-fluorophenyl)-N-methylthiazol-2-amine] |  | > 1000 | 0.01 to 100 | 
10 | CCc1nc2ccc(C3CCN(Cc4ccccc4)CC3)cn2c1N(C)c1nc(-c2ccc(F)cc2)cs1 [Compound 217, [6-(1-Benzyl-piperidin-4-yl)-2-ethyl-imidazo[1,2-a]pyridin-3-yl]-[4-(4-fluoro-phenyl)-thiazol-2-yl]-methyl-amine] |  | > 1000 | 0.01 to 100 | 
11 | CCc1nc2ccc(C3CCN(C(C)C)CC3)cn2c1N(C)c1nc(-c2ccc(F)cc2)cs1 [Compound 218, N-(2-ethyl-6-(1-isopropylpiperidin-4-yl)imidazo[1,2-a]pyridin-3-yl)-4-(4-fluorophenyl)-N-methylthiazol-2-amine] |  | > 1000 | 0.01 to 100 | 
12 | CCc1nc2ccc(C3CCN(C(=O)OC(C)(C)C)CC3)cn2c1N(C)c1nc(-c2ccc(F)cc2)cs1 [Compound 219, tert-butyl 4-(2-ethyl-3-((4-(4-fluorophenyl)thiazol-2-yl)(methyl)amino)imidazo[1,2-a]pyridin-6-yl)piperidine-1-carboxylate] |  | > 1000 | 0.01 to 100 | 
13 | CCc1nc2ccc(C3=CCOCC3)cn2c1N(C)c1nc(-c2ccc(F)cc2)cs1 [Compound 220, N-(6-(3,6-dihydro-2H-pyran-4-yl)-2-ethylimidazo[1,2-a]pyridin-3-yl)-4-(4-fluorophenyl)-N-methylthiazol-2-amine] |  | > 1000 | 0.01 to 100 | 
14 | CCc1nc2ccc(C3=CCOCC3)cn2c1N(C)c1nc(-c2ccc(Cl)cc2)cs1 [Compound 221, 4-(4-chlorophenyl)-N-(6-(3,6-dihydro-2H-pyran-4-yl)-2-ethylimidazo[1,2-a]pyridin-3-yl)-N-methylthiazol-2-amine] |  | > 1000 | 0.01 to 100 | 
15 | CCc1nc2ccc(C3CCN(S(C)(=O)=O)CC3)cn2c1N(C)c1nc(-c2ccc(F)cc2O)cs1 [Compound 224, 2-(2-((2-ethyl-6-(1-(methylsulfonyl)piperidin-4-yl)imidazo [1,2-a]pyridin-3-yl)(methyl)amino)thiazol-4-yl)-5-fluorophenol] |  | > 1000 | 0.01 to 100 | 
16 | CCc1nc2ccc(N3CCN(C(=O)OC(C)(C)C)CC3)cn2c1N(C)c1nc(-c2ccc(Cl)cc2)ns1 [Compound 225, tert-butyl 4-(3-((3-(4-chlorophenyl)-1,2,4-thiadiazol-5-yl)(methyl)amino)-2-ethylimidazo[1,2-a]pyridin-6-yl) piperazine-1-carboxylate] |  | > 1000 | 0.01 to 100 | 
17 | CCc1nc2ccc(N3CCN(C(=O)C4CC4)CC3)cn2c1N(C)c1nc(-c2ccc(F)cc2)cs1 [Compound 227, Cyclopropyl-[4-(2-ethyl-3-{[4-(4-fluoro-phenyl)-thiazol-2-yl]-methyl-amino}-imidazo[1,2-a]pyridin-6-yl)-piperazin-1-yl]-methanone] |  | > 1000 | 0.01 to 100 | 
18 | CCc1nc2ccc(N3CCCS3(=O)=O)cn2c1N(C)c1nc(-c2ccc(F)cc2)cs1 [Compound 229, [6-(1,1-Dioxo-isothiazolidin-2-yl)-2-ethyl-imidazo[1,2-a]pyridin-3-yl]-[4-(4-fluoro-phenyl)-thiazol-2-yl]-methyl-amine] |  | > 1000 | 100 to 500 | 
19 | CCc1nc2ccc(C3=CCN(S(=O)(=O)CCCCl)CC3)cn2c1N(C)c1nc(-c2ccc(F)cc2)cs1 [Compound 233, N-(6-(1-(3-chloropropylsulfonyl)-1,2,3,6-tetrahydropyridin-4-yl)-2-ethylimidazo[1,2-a]pyridin-3-yl)-4-(4-fluorophenyl)-N-methylthiazol-2-amine] |  |  | 0.01 to 100 | not active
20 | CCc1nc2ccc(C3=NC(CO)CO3)cn2c1N(C)c1nc(-c2ccc(F)cc2)cs1 (centres unmarked) [Compound 239, (2-(2-ethyl-3-((4-(4-fluorophenyl)thiazol-2-yl)(methyl)amino)imidazo[1,2-a]pyridin-6-yl)-4,5-dihydro-oxazol-4-yl)methanol] |  | > 1000 | 0.01 to 100 | 
